# Reference: patent publication US10563216B2, “Compositions and methods of delivering molecules to plants” (Bloomsburg University of Pennsylvania, priority 2016, dated 2020)
# Test system: AvsYS1 avenic acid/Fe+3 transporter
# Test: Yeast growth assay in liquid medium; only iron available is Fe+3 complexed with the phytosiderophore or analog; DEY1453:pJKD1 (pYES2/AvsYS1) vs DEY1453:pYES2
# Type: cell-based, Avena sativa
# Details: for growth of yeast transformants containing pJKD1 (AvsYS1 transporter): S. cerevisiae DEY1453:pJKD1, ferric iron supplied only as complex with the substance, YNB pH 7.5, BPDS
# Source text: AvsYS1 (Genbank FJ477297.1) was isolated using 5′RACE from the roots of iron starved oats (Avena sativa). Primers were designed by comparing one functionally confirmed phytosiderophore/Fe′ transporter (HvYS1) and other iron transport proteins. After obtaining a full-length clone, we subcloned the gene (AvsYS1) into a yeast galactose inducible expression vector (pYES2). The resultant plasmid was designated pJKD1. We obtained a yeast strain that lacks the ability to take up ferric iron, and transformed it with pYES2 and pJKD1. The transformants were grown under identical conditions in which the only iron available was in the Fe^+3/avenic acid complex.
# We engineered the AvsYS1 gene into a galactose inducible expression systems vector (pYES2). Our first major result was the functional confirmation of the AvsYS1 gene. We transformed pYES2 and pJKD1 (pYES2/AvsYS1) into a strain of S. cerevisiae (DEY1453) that lacks the ability to take up Fe^+3. In the process, we developed a new assay based on growth in liquid medium. The advantage of this assay over more traditional assays used in yeast-based PS/Fe^+3 assays is that it is quantifiable. Other assays (e.g., Murata, 2006) grow yeast on a solid plate, and qualitative growth of colonies is used. With our assay, we can generate numerical data based on the density as measured by the absorbance at 600 nm. […] Further detail is provided below.
# Protocols included: 53Y and 53K in DOB+FeSO4, 53Y and 53K in YNB supplemented with Avenic acid; 53Y and 53K supplemented with BPA-1-068B; 53Y and 53K in YNB w/no supplements; uninoculated YNB; uninoculated DOB.
# Protocols included: 53Y and 53K, supplemented with Avenic acid, 53Y and 53K supplemented with BPA-1-068B, 53Y and 53K in YNB w/no supplements.
# Strains grown in YNB/Gal, pH 7.5, Amp50, Avenic acid: Fe^+3, 5:1
# Protocols included: 53Y(pYES2) and 53K(pJKD1=pYES2+AvsYS1), supplemented with Avenic acid (red arrows); 53Y and 53K supplemented with BPA-1-068B (blue arrows); 53Y and 53K in YNB w/no supplements.
Structure (SMILES),growth of yeast transformants containing pJKD1 (AvsYS1 transporter),"growth of yeast transformants with pYES2 (no transporter) (S. cerevisiae DEY1453:pYES2, only iron available is the Fe+3 complex with the substance)","growth rate of DEY1453:pJKD1 (Fe+3 complexed with the analog, robustness compared to DEY1453:pYES2 controls)"
O=C(O)C(CCO)NCCC(NCC[C@H](O)C(=O)O)C(=O)O (some centres unmarked) [avenic acid],able to grow vigorously,could not,–
O=C(CC(NCCC(NCC[C@H](O)C(=O)O)C(=O)O)C(=O)O)OCc1ccccc1O (some centres unmarked) [BPA-1-068B],able to grow,–,"slower, but undeniably robust"
O=C(O)C(CO)NCCC(NCC[C@H](O)C(=O)O)C(=O)O (some centres unmarked) [MGS-2-128BF],supported growth as well as avenic acid,–,–
